Patent publication EP3351262A1, “CURAGLUTIDE FOR IN TREATMENT OF PREDIABETES, DIABETES, OBESITY AND METABOLIC DISEASES ASSOCIATED THERETO” (Istanbul Universitesi Rektorlugu, priority 2016, dated 2018)

What was measured:
[1] = test system: INS-1 beta cells; experiment: ROS measurement with H2DCFDA; assay type: cell-based, rat; settings: INS-1 cells, 3rd hour, control 100%
Procedure: When this compound oxidizes by oxidants or free radicals, fluorescent dichlorofluorescein (DCF) will occur.
INS-beta cells were cultured into the plates covered with black with 96 wells in a way such that there would be 50 000 cells in 100 µl. After the growth of the cells, the experiment group (only palmitic acid given) and the groups wherein curaglutide as both protective and therapeutical against palmitic acid was given were removed at the end of the experiment, and each of the wells were washed with PBS. Then 100 µl PBS was added to every well. Then, start of experiment was accepted as 0th hour by adding 10 mM DCFA and the measurements were taken for 3 hours in every 30 minutes, including 0th hour. The absorbance values of each group and the absorbance values in 3rd hour was calculated by assuming the value of the control group as 100%.
ROS measurement was performed by applying H 2 DCFDA occurred as a result of chemical […] of fluorescein which is used as a marker for reactive oxygen derivatives (ROS) to INS-1 beta cells wherein palmitic acid was applied in different doses, and the results are shown in Figure 5.
ROS measurement was performed by applying 10 nM curaglutide as protector and therapeutical to INS-1 beta cells wherein palmitic acid was applied in different doses, and the results are shown in Figure 11.

[2] = test system: INS-1 cells; experiment: Lactate dehydrogenase (LDH) release cytotoxicity test (necrosis); assay type: cell-based, rat; settings: for cytotoxicity value percentages: 24 h, positive control (lysis) 100%; for % cytotoxicity values: LDH secretion
Procedure: Lactate dehydrogenase (LDH) release test is based on the measurement of the activity of lactate dehydrogenase which is a cytoplasmic enzyme released from the dead cells or cells with damaged plasma membrane and it is used in cellular cytotoxicity assessment. The cytotoxic effect of palmitic acid on […] pancreatic INS-1 cell strain was determined by LDH activity released from the damaged cells and for this purpose Cytotoxicity Determination Kit, LDH (Roche Molecular Marker) was used.
In LDH test, as well as the experimental groups wherein palmitic acid was applied, negative control group for spontaneous LDH release from the cells and positive control group for LDH release were studied. Since palmitic acid in 0.5, 0.75 and 1 mM doses decreases the cell viability, these doses and the control group of the highest dose were studied. The cells were removed by trypsin-EDTA and centrifuged, after growth in 75 cm^2 flask. The cells were suspended in medium in a way such that there would be 50 000 cells in 100 µl, and 100 µl cell suspension was transferred into plates with 96 wells. 10 wells were studied for each of the control and experiment groups and the experiment was repeated for 3 times. After the incubation for 24 hours, the control groups were washed with PBS, and they were freshened with the medium without sodium pyruvate and beta-mercaptoethanol. The medium of the experiment groups was changed with the medium containing different concentrations of palmitic acid. Following the incubation of the cells with palmitic acid for 24 hours, LDH activity released from the cells was determined according to the instructions of the manufacturer. 5 µl lysis solution (2% Triton-X-100) was added to the wells of positive control group and the plate was incubated at 37 °C for 15 minutes. In order to measure LDH activity, the fresh reaction mixture prepared containing catalyst (Diaphorase+NAD mixture) and paint solution (Iodotetrazolium chloride (INT) and sodium lactate) was added to each of the wells. Following the incubation at room temperature for 30 minutes, the reaction was stopped by adding 50 µl stopping solution (IN HCl) to each of the wells. The plates were shaken in an orbital shaker for 10 seconds and the spectrophotometric absorbance was measured in 490 nm test wavelength and 690 nm reference wavelength. The results were determined as "cytotoxicity %". The average absorbance values of negative control were extracted from control and experiment groups and they were calculated by using the formula below by comparing control and experiment groups according to positive control group, and by assuming that positive control group is 100% cytotoxic: 100% Cytotoxicity = ((Experiment or Control Value)−(Negative Control))/((Positive Control)−(Negative Control)) × 100 [formula]
Lactate dehydrogenase release in INS-1 cells wherein different palmitic acid doses were applied was measured using cytotoxicity kit and the results are shown in Figure 4.
Protective and therapeutic effect of 10 nM curaglutide on necrosis is shown in Figure 10 by the evaluation of LDH secretion at 3 and 4 mM doses in INS-1 beta cells. According to the results, in INS-1 beta cells % cytotoxicity values are 48.2±2 in the group where 3 mM dose (necrotic dose) of palmitic acid was administered, 11.6±2.9 in the group where 10 nM curaglutide was administered as a protective against necrotic dose, 11.6±4.8 in the group where 10 nM curaglutide was supplied as a curative agent in necrotic dose, 81.3±5.9 in the group where 4 mM dose of palmitic acid was administered, […] in the group where curaglutide was administered as a protective against 4 mM palmitic acid, 68.2±7.2 in the group where 10 nM curaglutide was administered as therapeutic at 4 mM dose of palmitic acid. As compared to the control group, statistically meaningful results were obtained in both doses in terms of protective effect (p<0,0001). […]

`CCCCCCCCCCCCCCCC(=O)O` [palmitic acid] showed an ROS measurement percentages ([1]; 0.5 mM palmitic acid) of 116±6.01%, an ROS measurement percentages ([1]; 1 mM palmitic acid) of 117±2.5% and an ROS measurement percentages ([1]; 1.5 mM palmitic acid) of 119.7±7.0%. For the same compound, the ROS measurement percentages ([1]; 1.75 mM palmitic acid) was 136.5±5.6%, the ROS measurement percentages ([1]; 2 mM palmitic acid) was 145.8±3.8% and the ROS measurement percentages ([1]; 2.5 mM palmitic acid) was 172.1±6.1%. The ROS measurement percentages ([1]; 3 mM palmitic acid) was 174.8±9.9%, the ROS measurement percentages ([1]; 3.5 mM palmitic acid) was 241.6±5.5% and the ROS measurement percentages ([1]; 4 mM palmitic acid) was 262.2±9.9%. It also gave a cytotoxicity value percentages ([2]; 1 mM palmitic acid) of 1±0%, a cytotoxicity value percentages ([2]; 2 mM palmitic acid) of 13.5±2.4% and a cytotoxicity value percentages ([2]; 3 mM palmitic acid (necrotic dose)) of 48.2±2%. The cytotoxicity value percentages ([2]; 4 mM palmitic acid) was 81.3±5.9%.

With `CC[C@H](C)[C@H](NC(=O)[C@H](Cc1ccccc1)NC(=O)[C@H](CCC(=O)O)NC(=O)[C@H](CCCCN)NC(=O)[C@H](C)NC(=O)[C@H](C)NC(=O)[C@H](CCC(N)=O)NC(=O)CNC(=O)[C@H](CCC(=O)O)NC(=O)[C@H](CC(C)C)NC(=O)[C@H](Cc1ccc(O)cc1)NC(=O)[C@H](CO)NC(=O)[C@H](CO)NC(=O)[C@@H](NC(=O)[C@H](CC(=O)O)NC(=O)[C@H](CO)NC(=O)[C@@H](NC(=O)[C@H](Cc1ccccc1)NC(=O)[C@@H](NC(=O)CNC(=O)[C@H](CCC(=O)O)NC(=O)[C@H](C)NC(=O)[C@H](Cc1c[nH]cn1)NC(C)=O)[C@@H](C)O)[C@@H](C)O)C(C)C)C(=O)N[C@@H](C)C(=O)N[C@@H](Cc1c[nH]c2ccccc12)C(=O)N[C@@H](CC(C)C)C(=O)N[C@H](C(=O)N[C@@H](CCCCN)C(N)=O)C(C)C` [curaglutide] the “% cytotoxicity values” ([2]; 10 nM curaglutide as curative agent, 3 mM palmitic acid (necrotic dose)) was 11.6±4.8%, the “% cytotoxicity values” ([2]; 10 nM curaglutide as protective against 3 mM palmitic acid (necrotic dose)) was 11.6±2.9% and the “% cytotoxicity values” ([2]; 10 nM curaglutide as therapeutic at 4 mM palmitic acid) was 68.2±7.2%. For the same compound, the “% cytotoxicity values” ([2]; curaglutide as protective against 4 mM palmitic acid) was 45.8±6.8%.
